Patent US5264432A, “5-(1-aminoacyl)-5,10-dihydro-11H-dibenzo[b,e](1,4)diazepin-11-ones” (Arzneimittelwerk Dresden G.m.b.H, priority 1989, dated 1993)
Structures can show the parent of a compound that is named as a salt. Where two headings read alike, the source gives them in different places.

Legend:
[1] = test system: CaCl2 arrhythmia of the rat; test: CaCl2 arrhythmia of the rat (antifibrillatory effect); details: ratio LD50 iv./ED50 iv.
Method: The data is analyzed by the Probit regression analysis with a confidence interval of p=0.05 (values in parentheses).
Q is the ratio of LD50 iv. /ED50 iv. to determine therapeutic breadth range.

in vivo = details: rat, iv, i.v. tail vein, Wistar rats, parentheses = confidence interval p=0.05, read-out: LD50 i.v., acute toxicity of the rat
Method: The data were analyzed by the Probit regression analysis with a confidence interval of p=0.05 (values in parentheses).

[2] = test system: dogs, 24 hours after a two-step coronary ligature; test: two-step coronary ligature on the dog (Harris model); format: in vivo; details: for total number of heart contractions/min. / ectopic contractions in percent/min.: average value; for effective action in minutes (duration of action), Harris dog: i.v. at the effective dose, dogs, 24 hours after two-step coronary ligature
Method: Dose is the effective dose in mg/kg, as well as the duration of action in minutes in dogs, 24 hours after a two-step coronary ligature.

[3] = test system: dogs, 24 hours after a two-step coronary ligature; details: quinidine, cited from earlier work

Compound	Q = LD50/ED50 (therapeutic breadth) [1]	LD50 (in vivo) [mg/kg]	effective action in minutes (duration of action), Harris dog [2] [min]	ectopic contractions in percent/min. ([2]; 5 mins, 0.005 mmol/kg) [percent/min.]	ectopic contractions in percent/min. ([2]; 30 mins, 0.005 mmol/kg) [percent/min.]	ectopic contractions in percent/min. ([2]; 60 mins, 0.005 mmol/kg) [percent/min.]	ectopic contractions in percent/min. ([2]; 120 mins, 0.005 mmol/kg) [percent/min.]	other results
CCN(CC)CCCC(=O)N1c2ccc(Cl)cc2NC(=O)c2ccccc21 [Example 4, 8-Chloro-5-(4-diethylamino-butyryl)-5,10-dihydro-11H-dibenzo(b,e)(1,4)-diazepine-11-one]	1614	71	30					total number of heart contractions/min. ([2]; 30 mins., 0.005 mmol/kg): 180 min⁻¹; total number of heart contractions/min. ([2]; 120 mins., 0.005 mmol/kg): 183 min⁻¹
C=C[C@H]1C[N@@]2CC[C@H]1C[C@@H]2[C@@H](O)c1ccnc2ccc(OC)cc12 [Quinidine]								Harris dog effective dose ([3]; i.v., reference [1] Mokler and Arman 1962): 10.0 mg/kg; effective action in minutes (duration of action), Harris dog ([3]; i.v., reference [1]): 15 min; ectopic arrhythmia (in words) ([3]; reference [1]): decrease in the ectopic arrhythmia; total number of heart contractions (in words) ([3]; reference [1]): decrease in the total number of heart contractions
CCN(CC)CCCCCC(=O)N1c2ccc(Cl)cc2NC(=O)c2ccccc21 [Example 6, 8-Chloro-5-(6-diethylamino-capronyl)-5,10-dihydro-11H-dibenzo(b,e)(1,4)-diazepine-11-one]	86	38	60	20	4	37	76	total number of heart contractions/min. ([2]; 5 mins., 0.005 mmol/kg): 170 min⁻¹
O=C1Nc2cc(Cl)ccc2N(C(=O)CCCCCCN2CCOCC2)c2ccccc21 [Example 9, 8-Chloro-5-(7-N-morpholino-enanthoyl)-5,10-dihydro-11H-dibenzo(b,e)(1,4)-diazepine-11-one]	256	41	120	21	38	42	42	total number of heart contractions/min. ([2]; 120 mins., 0.005 mmol/kg): 156 min⁻¹; ectopic contractions in percent/min. ([2]; 180 mins, 0.005 mmol/kg): 73 percent/min.; ectopic contractions in percent/min. ([2]; 300 mins, 0.005 mmol/kg): 79 percent/min.; total number of heart contractions/min. ([2]; 360 mins., 0.005 mmol/kg): 180 min⁻¹; ectopic contractions in percent/min. ([2]; 360 mins, 0.005 mmol/kg): 89 percent/min.
CCN(CC)CC(=O)Nc1c(C)cccc1C [Lidocaine, reference compound]			15					ectopic contractions in percent/min. ([2]; 5 mins, 0.02 mmol/kg (5.4 mg/kg)): 34 percent/min.; ectopic contractions in percent/min. ([2]; 30 mins, 0.02 mmol/kg (5.4 mg/kg)): 78 percent/min.; ectopic arrhythmia / ectopy rate (in words) ([2]; dog, Harris): decrease in the ectopic arrhythmia; total number of heart contractions (in words) ([2]; dog, Harris): decrease in the total number of heart contractions
5-(4-Diethylamino-butyryl)-5,10-dihydro-11H-dibenzo(b,e)(1,4)-diazepine-11- one [Example 2]				26	24	75	90	ectopic contractions in percent/min. ([2]; base, 0.005 mmol/kg): 88 percent/min.
CN(C)CCCCCC(=O)N1c2ccccc2NC(=O)c2ccccc21 [Example 1, 5-(6-Dimethylamino-capronyl)-5,10-dihydro-11H-dibenzo(b,e)(1,4)-diazepine-11-one.HCl]	207	85	60	30	47	54	68	ectopic contractions in percent/min. ([2]; 180 mins, 0.005 mmol/kg): 80 percent/min.
